{
  "source": "patent US7208572B2",
  "about": "“Leptin-related peptides” (Albany Medical College, priority 1998, dated 2007)",
  "key": {"[1]": {"settings": "db/db mice, 1 mg/day ip", "experimental": "Peptide administration: LEP(116–130) and LEP(146–160) peptide amides were dissolved in sterile phosphate buffered saline (PBS, pH 7.2) and administered daily for 7 days between 1500 and 1600 h in a single 1 mg/0.2 ml ip injection. Control mice received 0.2 ml PBS (ip) only.\nFeeding and weighing schedule: On day one of the study, and on each day thereafter, 200 g of pelleted rodent diet (Prolab Rat, Mouse, Hamster 3000, St.Louis Mo.; 22% crude protein, 5% crude fat, 5% fiber, 6% ash, 2.5% additional minerals) was added to the hopper on each side of the cages between 0900 and 1100 h. Food remaining after 24 h was weighed to the nearest 0.1 g, and the average amount of food consumed per mouse was calculated (mean±SEM, n=6). The mice were allowed water ad libitum throughout the study, and were weighed once daily between 0900 and 1100 h.\nEach value represents the mean±SEM change in body weight or food intake for a group of six mice."}, "OB-Ra": {"biological_target": "T1, OB-Ra (Mus musculus, UniProt P48356)", "T1 construct": "expressed in transfected cells; host or cells: COS-7", "T1 sequence (P48356 22-894 isoform P48356-2 limits assumed)": "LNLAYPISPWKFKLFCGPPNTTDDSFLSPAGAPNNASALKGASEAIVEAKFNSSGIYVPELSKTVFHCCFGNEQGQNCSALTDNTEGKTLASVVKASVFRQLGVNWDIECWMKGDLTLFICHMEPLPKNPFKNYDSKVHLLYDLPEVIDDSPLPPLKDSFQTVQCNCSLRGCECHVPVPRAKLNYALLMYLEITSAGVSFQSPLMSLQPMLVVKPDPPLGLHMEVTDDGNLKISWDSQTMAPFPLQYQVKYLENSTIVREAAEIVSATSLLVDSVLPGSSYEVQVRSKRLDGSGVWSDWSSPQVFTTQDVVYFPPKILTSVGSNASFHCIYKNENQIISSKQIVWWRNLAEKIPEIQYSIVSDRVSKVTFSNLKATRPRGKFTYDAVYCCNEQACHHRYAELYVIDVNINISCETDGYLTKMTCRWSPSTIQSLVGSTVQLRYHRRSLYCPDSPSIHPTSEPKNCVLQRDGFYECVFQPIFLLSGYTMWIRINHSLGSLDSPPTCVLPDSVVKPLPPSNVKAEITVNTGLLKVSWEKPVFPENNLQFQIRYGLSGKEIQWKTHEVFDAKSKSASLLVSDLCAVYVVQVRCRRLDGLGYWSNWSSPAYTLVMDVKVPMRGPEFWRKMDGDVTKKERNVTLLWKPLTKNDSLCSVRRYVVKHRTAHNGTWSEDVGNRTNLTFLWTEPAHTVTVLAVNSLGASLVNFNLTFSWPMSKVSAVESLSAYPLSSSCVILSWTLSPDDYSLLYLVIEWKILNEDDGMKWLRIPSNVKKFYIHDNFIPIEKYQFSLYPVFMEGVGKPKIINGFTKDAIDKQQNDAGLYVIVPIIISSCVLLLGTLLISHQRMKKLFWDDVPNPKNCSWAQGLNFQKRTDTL", "test": "Inhibition of AP-OB fusion protein binding by COS-7 cells transfected with OB receptor", "settings": "1 nM human AP-OB, peptide up to 300 μM", "text": "Initial experiments to determine the mechanism of action of LEP(116–130) utilized two highly sensitive in vitro bioassays routinely used to assess leptin binding and receptor activation (see e.g., White, et al., 1997. Proc. Natl. Acad. Sci. U.S.A. 94: 10657–10662). An alkaline phosphatase (“AP”)-leptin (“OB”) fusion protein (“AP-OB”) was used to measure inhibition of leptin binding in the absence or presence of recombinant mouse leptin (positive control) or peptide, by COS-7 cells transfected with the long (signaling) form of the mouse OB receptor (“OB-RL”). Signal transduction assays were done in GT1–7 cells cotransfected with AP reporter and OB-RL constructs. Secreted alkaline phosphatase (“SEAP”) activity in response to stimulation with mouse leptin or peptide was measured by chemiluminescence.\nTwo days after transfection, COS-7 cells were incubated with 1 nm human AP-OB fusion protein and bound AP activity was determined by chemiluminescence using the Great EscApe alkaline phosphatase detection kit as described by the manufacturer (CLON-TECH).\nCOS-7 cells were transfected with expression vector for OB-Ra. Two days after transfection, the cells were incubated with 1 nM human AB-OB fusion protein in the absence or presence of 30 nM mouse leptin, 300 μM LEP(116–130) or LEP(146–160). Bound AP activity was determined as has been described. See., e.g., Kamohara et al., 1997 Nature 389: 374–377."}},
  "data": [
    {"sequence": "A L S R L Q G S L Q D I L Q Q (ALSRLQGSLQDILQQ) [LEP(146–160)]", "values": [
      {"measurement": "Weight after 7 days", "setting": "[1]", "value": "36.2 ± 1.4", "unit": "g"},
      {"measurement": "Cumulative food intake", "setting": "[1]; 7 days", "value": "53.5 ± 0.3", "unit": "gm/mouse"},
      {"measurement": "Effect on body weight gain and food intake", "setting": "[1]; 7 days", "value": "had no effect on either body weight"},
      {"measurement": "Percent increase (body weight)", "setting": "[1]; 7 days", "value": "+18.3%"},
      {"measurement": "Weight increase", "setting": "[1]; 7 days", "value": "+5.6 g"},
      {"measurement": "Inhibition of AP-OB fusion protein binding", "setting": "OB-Ra", "value": "neither LEP(116–130) nor LEP(146–160), at 300 μM, were able to inhibit AP-OB binding"},
      {"measurement": "Inhibition of AP-OB fusion protein binding", "setting": "OB-Ra; listed as LEP(145–160)", "value": "unable to inhibit AP-OB binding"}
    ]}
  ]
}
